From ChEMBL document CHEMBL5727886, “Bicyclic compounds as dual ATX/CA inhibitors” (2020)
pIC50: −log10 of the molar value.

Target: Carbonic anhydrase 2 (Homo sapiens, UniProt P00918)
Assay: Then 30 μL of 16 nM hCA II solution was added (8 nM final concentration), mixed five times. 30 μL of 4-NPA substrate solution was added (2.5 mM final concentration), mixed five times.

pIC50: 8.22
Compound: NS(=O)(=O)c1ccc(C(=O)N2C[C@H]3CN(C(=O)/C=C/c4ccc(OC(F)(F)F)cc4)C[C@]3(F)C2)c(F)c1 (relative stereo)
